Source: patent publication US20150045410A1, “METHOD OF REGULATING CFTR EXPRESSION AND PROCESSING” (University of Iowa Research Foundation, priority 2012, published 2015)

Tests used:
CFTR [1] = experiment: CFTR mRNA and protein in polarized primary cultures of human airway epithelia; assay type: cell-based; conditions: mRNA 24 hrs, protein 72 hrs post-transfection
Procedure: Airway epithelia from human trachea and primary bronchus removed from organs donated for research were cultured at the air-liquid interface (ALI) (Karp, P. H. et al. An in vitro model of differentiated human airway epithelia. Methods for establishing primary cultures. Methods Mol. Biol. 188, 115-137 (2002)). These studies were approved by the Institutional Review Board of the University of Iowa. Briefly, airway epithelial cells were dissociated from native tissue by pronase enzyme digestion. Permeable membrane inserts (0.6 cm^2 Millipore-PCF, 0.33 cm^2 Costar-Polyester) pre-coated with human placental collagen (IV, Sigma) were seeded with freshly dissociated epithelia. […]
(§1) First-strand cDNA was synthesized using SuperScript® II (Invitrogen), and oligo-dT and random-hexamer primers. […] To quantitate miRNAs, TaqMan® microRNA Assays (Applied Biosystems) were obtained for miR-138, RNU48 (control) and 8 other miRNAs (negative control, miRs-21, -24, -26a, -200c, -146a, -146b, -27a*, -134). […] All experiments were performed in quadruplicate. mRNA and miRNA quantification in cell lines represents 8 independent transfections in 4 separate experiments. mRNA quantification in human primary airway epithelial cultures represent 8 independent transfections in 8 non-CF donors and 4 CF donors. […]

CFTR [2] = experiment: CFTR mRNA (RT-qPCR) and protein (immunoblot) in Calu-3 cells; assay type: cell-based, human; conditions: mRNA 24 hrs, protein 72 hrs post-transfection
Procedure: Freshly dissociated human airway epithelial cells or immortalized cell lines were transfected in pre-coated 96 well plates (Costar) or Transwell™ Permeable Supports (0.33 cm^2 0.4 μm polyester membrane, Costar 3470). Lipofectamine™ RNAiMAX (Invitrogen) was used as a reverse transfection reagent. Pre-coated (with human placental collagen Type IV, Sigma) substrates were incubated with the transfection mix comprising of Opti-MEM (Invitrogen), oligonucleotide (Integrated DNA Technologies) and Lipofectamine™ RNAiMAX (Invitrogen). 15-20 minutes later, 200,000 freshly dissociated cells suspended in DMEM/F-12 were added to each well/insert. Between 4-6 hrs later, all media from the apical surface was aspirated and complete media added to the basolateral surface. […]
as §1

Substance | CFTR mRNA and protein levels (CFTR [1]) | CFTR mRNA and protein levels (CFTR [2])
SIN3A DsiRNA: Dicer-substrate siRNA against SIN3A, sense SEQ ID NO: 6, antisense SEQ ID NO: 7 (sense GCGAUACAUGAAUUCAGAUACUACC; antisense GGUAGUAUCUGAAUUCAUGUAUCGCUC; chemistry not given here) | increased | increased
miR-138 mimic: synthetic modified RNA duplex, sense SEQ ID NO: 4, antisense SEQ ID NO: 5, showing miR-138-like activity | increased | increased
